The subject of one experiment is C57/BL6 mice. The experiment can be described thus: bleomycin-induced pulmonary fibrosis in mice. In kind it is in vivo. Here is the method: To determine the effects of compound 1 in treatment of a fibrosing disease, pulmonary fibrosis was selected as a model. Pulmonary fibrosis was induced in C57/BL6 mice by oropharyngeal aspiration of bleomycin into their lungs. 24 hour after bleomycin administration, mice received daily intraperitoneal injections of compound 1. At day 21 mice were euthanized and the bronchoalveolar lavage fluid (BAL) and the lungs were harvested.
The successful aspiration of bleomycin into the lungs was confirmed by listening for the crackling noise heard after the aspiration. Starting 24 hours following bleomycin aspiration (day 1), mice were treated daily with intraperitoneal injections of 50 microliters of PBS containing 2 microliters of 1 mg/ml of compound 1 (ChemBridge Corporation, San Diego, Calif.) (0.1 mg/kg) dissolved in DMSO (SigmaAldrich), 2 microliters of 0.1 mg/ml of compound 1 (0.01 mg/kg) dissolved in DMSO, 2 microliters of 0.01 mg/ml of compound 1 (0.001 mg/kg) dissolved in DMSO, or an equal volume of PBS containing 2 microliters of DMSO. All animals were used in accordance with rules published by the National Institutes of Health and with a protocol approved by the Texas A&M University Institutional Animal Care and Use Committee. Mice were weighed daily, and euthanized using CO2 following NIH guidelines at day 21 after bleomycin aspiration. No injections were done on day 21. […] The BAL cells from the first BAL collection were collected by centrifugation at 500×g for 10 minutes, and the supernatants were transferred to Eppendorf tubes. The supernatants were flash frozen with liquid nitrogen, and stored at −20° C. until further use. The BAL pellets were resuspended in the secondary and tertiary BAL fluid and the combined cells were collected by centrifugation at 500×g for 5 minutes. The cells were resuspended in 500 microliters of 4% (w/v) BSA-PBS and counted with a hemocytometer. 100 microliters of diluted cells were then aliquoted into cytospin funnels and were then spun onto glass slides (Superfrost plus white slides, VWR) at 400×g for 5 minutes using a cytospin centrifuge (Shandon, Cheshire, England). These cells were then air-dried, and stained for CD11b (Biolegend) or CD11c (MBL International, Woburn, Mass.) as described below.
After collection of BAL fluid, mouse lungs were inflated with prewarmed OCT (VWR, Radnor, Pa.) and then embedded in OCT, frozen on dry ice, and then stored at −80° C. 6-micron cryosections of mouse lung were mounted on Superfrost Plus microscope slides (VWR). Sections were fixed in acetone for 20 min at room temperature. […] After washing, the biotinylated antibodies were detected by streptavidin-alkaline phosphatase (Vector Laboratories) following the manufacturer's protocol. […]

In experiment [1] the test system is fibrocyte formation from human PBMCs. The experiment can be described thus: fibrocyte formation (differentiation) assay with PBMCs in serum-free medium. Particulars: for IC50: PBMC, read-out: IC50 of inhibition of fibrocyte formation; for effect on fibrocyte formation / differentiation (in words): counts normalized to control; for concentration at which fibrocyte formation was significantly inhibited: p<0.05 (t-test). Type of experiment: cell-based. An excerpt: (§1) Human blood was collected into heparin tubes (BD Bioscience, San Jose, Calif.) from adult volunteers who gave written consent and with specific approval from the Texas A&M University human subjects Institutional Review Board. PBMCs were then isolated as previously described in Pilling, D. et al., Improved serum-free culture conditions for differentiation of human and murine fibrocytes, Journal of Immunology Methods 351:62-70 (2009), incorporated in material part by reference herein. Alamar Blue (Life Technologies, Grand Island, N.Y.) was used to assess cell viability following the manufacturer's protocol. Fibrocyte differentiation assays in the presence of different compounds were performed in serum-free medium as described in Pilling, D. et al., Improved serum-free culture conditions for differentiation of human and murine fibrocytes, Journal of Immunology Methods 351:62-70 (2009) which is incorporated in material part by reference herein. Macrophage polarization assays to detect formation of proinflammatory macrophages with an M1 phenotype were carried out in serum-free medium, in which case monocytes were left to differentiate to macrophages for 5 days and then the medium was replaced with fresh medium containing 3 microgram/ml of the tested protein.

The test system of a further experiment is macrophages. The experiment can be described thus: macrophage polarization assay (M1 marker ICAM-1, M2 marker CD163). Particulars: 3 microgram/ml protein. Type of experiment: cell-based, human.
From the text: as §1
Macrophage staining with anti-CD163 and anti-ICAM-1 antibodies was carried out as described in Pilling, D. et al., Identification of markers that distinguish monocyte-derived fibrocytes from monocytes, macrophages, and fibroblasts, PloS one 10:e7475 (2009) which is incorporated in material part by reference herein. Both primary antibodies were used at a concentration of 5 microgram/ml.

The mark [2] stands for this setting: 0.1, 0.01 and 0.001 mg/kg daily intraperitoneal, day 21.

The values that follow come from patent publication US20160272713A1, “Fibrosis Inhibiting Compounds and Methods of Use Thereof in the Prevention or Treatment of Fibrosing Diseases” (priority 2013, published 2016).

What is called IC50 is the concentration that gives 50% inhibition.

Turning to `CCC(=O)Nc1nc(C)c(-c2csc(Nc3ccc(N(C)C)cc3)n2)s1` [Compound 1], in the experiment on C57/BL6 mice (setting [2]), the “CD11b positive inflammatory macrophages in the BAL vs bleomycin control” value is reported as “significantly decreased” and the “collagen in the lungs (picrosirius red) vs bleomycin alone” value was “significantly less collagen in the lungs”. Also, the “number of CD11b positive inflammatory macrophages in the lung sections” value in the experiment with C57/BL6 mice (0.1 and 0.01 mg/kg daily intraperitoneal, day 21, after BAL) is reported as “significantly decreased”. The “CD11c positive macrophages in the BAL” value in the experiment on C57/BL6 mice (daily intraperitoneal injections, day 21) is reported as “not altered significantly”. Moreover, the IC50 in experiment [1] came to 0.0031 nM.

Consider `CCCOC(=O)c1ccc(-c2ccc(C=C3C(=O)N(c4ccc(S(N)(=O)=O)cc4)N=C3C(F)(F)F)o2)cc1` [Compound 2], for which the IC50 in experiment [1] turned out to be 0.33 nM.

Turning to `COC(=O)c1ccc(-c2ccc(C=C3C(=O)N(c4ccc(S(N)(=O)=O)cc4)N=C3C(F)(F)F)o2)cc1` [Compound 3], in experiment [1], the IC50 is 2.2 nM and the “effect on fibrocyte formation / differentiation (in words)” value is on record as “significantly inhibited fibrocyte formation at all tested concentrations”.

Consider “SAP NA: enzymatically (neuraminidase) desialylated SAP lacking the terminal sialic acids”, for which, in the experiment on macrophages, the “expression of the M1 marker ICAM-1” value is given as “increased the expression of the M1 marker ICAM-1” and the “expression of the M2 marker CD163” value was “did not”. The “effect on fibrocyte formation / differentiation (in words)” value in experiment [1] is “reduced inhibitory effect on fibrocyte differentiation”.

Regarding “SAP: Serum amyloid P, 125 kDa pentameric pentraxin protein”, in the experiment on macrophages, the “expression of the M1 marker ICAM-1” value is reported as “did not cause such an increase” and the “expression of the M2 marker CD163” value was “increased the expression of the M2 marker CD 163”. In experiment [1], the “concentration at which fibrocyte formation was significantly inhibited” value is recorded as no less than 0.25 microgram/ml.

B1: CRP A32N: CRP glycosylated by mutating its 32nd amino acid from alanine to asparagine (protein, UniProt P02741 19-224, looked up, variant A32N)
C-reactive protein: QTDMSRKAFVFPKESDTSYVSLKAPLTKPLKNFTVCLHFYTELSSTRGYSIFSYATKRQDNEILIFWSKDIGYSFTVGGSEILFEVPEVTVAPVHICTSWESASGIVEFWVDGKPRVRKSLKKGYTVGAEASIILGQEQDSFGGNFEGSQSLVGDIGNVNMWDFVLSPDEINTIYLGGPFSPNVLNWRALKYEVQGEVFTKPQLWP
With B1, in the experiment on macrophages, the “expression of the M1 marker ICAM-1” value was “did not cause such an increase” and the “expression of the M2 marker CD163” value is listed as “increased the expression of the M2 marker CD 163”. Besides, in experiment [1], the “effect on fibrocyte formation / differentiation (in words)” value is on record as “able to inhibit fibrocyte formation, although not as well as SAP” and the “concentration at which fibrocyte formation was significantly inhibited” value is no less than 1 microgram/ml.

B2: CRP: C-reactive protein, 51% sequence identity with SAP (protein, UniProt P02741 19-224, looked up)
C-reactive protein: QTDMSRKAFVFPKESDTSYVSLKAPLTKPLKAFTVCLHFYTELSSTRGYSIFSYATKRQDNEILIFWSKDIGYSFTVGGSEILFEVPEVTVAPVHICTSWESASGIVEFWVDGKPRVRKSLKKGYTVGAEASIILGQEQDSFGGNFEGSQSLVGDIGNVNMWDFVLSPDEINTIYLGGPFSPNVLNWRALKYEVQGEVFTKPQLWP
In the case of B2, in the experiment with macrophages, the “expression of the M1 marker ICAM-1” value is “increased the expression of the M1 marker ICAM-1” and the “expression of the M2 marker CD163” value is listed as “did not”.
